# Data reported in patent US20100184809A1, “Heterocyclic FXR Binding Compounds” (PHENEX PHARMACEUTICALS AG, priority 2006, published 2010).
# pIC50: −log10 of the molar value.
# What was measured:
# [1] = Plasma protein binding assay (equilibrium dialysis); format: in vitro ADME; conditions: 37° C., extrapolated fraction unbound
# Protocol: Equilibrium dialysis is used to determine the extent of binding of a compound to plasma proteins. A semi-permeable membrane separates a protein-containing compartment from a protein-free compartment. The system is allowed to equilibrate at 37° C. The test compound present in each compartment is quantified by LC-MS/MS. The extent of binding is reported as a fraction unbound (fu) value which is calculated as fu=1−(PC−PF)/PC. PC=Test compound concentration in protein-containing compartment. PF=Test compound concentration in protein-free compartment. In addition to using whole plasma, the plasma protein binding assay can be performed using two other ratios of plasma (10% or 50% plasma in buffer v/v). The following equations are used to convert from a fraction unbound at 10% or 50% to a fraction unbound at 100%: […]
# [2] = Rat microsomal stability assay; format: in vitro ADME; conditions: liver microsomes, 37° C., NADPH, 45 minute, read-out: Rat liver microsome clearance
# Protocol: Compound stability towards rat liver microsomes was determined as follows: The microsomes are incubated with the test compound at 37° C. in the presence of the co-factor, NADPH, which initiates the reaction. The reaction is terminated by the addition of methanol. Following centrifugation, the supernatant is analysed on the LC-MS/MS. The disappearance of test compound is monitored over a 45 minute time period. The In peak area ratio (compound peak area/internal standard peak area) is plotted against time and the gradient of the line determined. Finally, Intrinsic clearance CLint is computed by the following equations: elimination rate konstant (k)=−gradient; t1/2 (min)=0.693/k; V (μl/mg)=volume of incubation (μl)/protein in incubation (mg); CLint (μl/min/mg protein)=V*0.693/t1/2.
# [3] = target: T1, human FXRalpha ligand binding domain (LBD) (Homo sapiens, UniProt Q96RI1); assay: FRET activity assay (ligand mediated cofactor peptide interaction, LANCE); format: biochemical; conditions: GST-FXR-LBD / biotinylated SRC-1 peptide (676-700)
# T1 construct: made in house; host or cells: E. coli BL21(DE3), vector pDEST15
# T1 sequence (Q96RI1 187-472 isoform Q96RI1-2): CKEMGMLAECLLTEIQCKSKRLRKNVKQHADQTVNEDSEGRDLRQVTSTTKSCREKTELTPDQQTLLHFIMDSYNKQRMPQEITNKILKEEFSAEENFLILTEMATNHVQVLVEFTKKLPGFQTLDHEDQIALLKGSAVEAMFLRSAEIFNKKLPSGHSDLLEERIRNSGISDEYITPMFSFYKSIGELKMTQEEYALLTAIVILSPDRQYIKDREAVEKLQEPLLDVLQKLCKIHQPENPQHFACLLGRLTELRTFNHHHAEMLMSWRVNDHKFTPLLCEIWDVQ
# Protocol: Determination of a ligand mediated cofactor peptide interaction to quantify ligand binding to the nuclear receptor Farnesoid X Receptor (FXR) was performed as follows:
# Preparation of human farnesoid X receptor (FXR) alpha ligand binding domain: The human FXRalpha ligand binding domain (LBD) was expressed in E. coli strain BL21(DE3) as an N-terminally glutathione-[…] (GST) tagged fusion protein. The DNA encoding the FXR ligand binding domain was cloned into vector pDEST15 (Invitrogen). Expression was under control of an IPTG inducible T7 promoter. The amino acid boundaries of the ligand binding domain were amino acids 187-472 of Database entry NM_005123 (RefSeq). Expression and purification of the FXR-LBD: An overnight preculture of a transformed E. coli strain was diluted 1:20 in LB-Ampicillin medium and grown at 30° C. to an optical density of OD600=0.4-0.6. Gene expression was then induced by addition of 0.5 mM IPTG. Cells were incubated an additional 6 h at 30° C., 180 rpm. Cells were collected by centrifugation (7000×g, 7 min, room temperature). Per liter of original cell culture, cells were resuspended in 10 ml lysis buffer (50 mM Glucose, 50 mM Tris pH 7.9, 1 mM EDTA and 4 mg/ml lysozyme) and left on ice for 30 min. Cells were then subjected to sonication and cell debris removed via centrifugation (22000×g, 30 min, 4° C.). Per 10 ml of supernatant 0.5 ml prewashed Glutathione 4B sepharose slurry (Qiagen) was added and the suspension kept slowly rotating for 1 h at 4° C. Glutathione 4B sepharose beads were pelleted by centrifugation (2000 g, 15 sec, 4° C.) and washed twice in wash buffer (25 mM Tris, 50 mM KCl, 4 mM MgCl2 and 1M NaCl). The pellet was resuspended in 3 ml elution buffer per liter of original culture (elution buffer: 20 mM Tris, 60 mM KCl, 5 mM MgCl2 and 80 mM glutathione added immediately prior to use as powder). The suspension was left rotating for 15 min at 4° C., the beads pelleted and eluted again with half the volume of elution buffer than the first time. The eluates were pooled and dialysed overnight in 20 mM Hepes buffer (pH 7.5) containing 60 mM KCl, 5 mM MgCl2 as well as 1 mM dithiothreitol and 10% (v/v) glycerol. The protein was analysed by SDS-Page.
# The method measures the ability of putative ligands to modulate the interaction between the purified bacterial expressed FXR ligand binding domain (LBD) and a synthetic biotinylated peptide based on residues 676-700 of SRC-1 (LCD2, 676-700). The sequence of the peptide used was B-[…]-COOH where the N-terminus was biotinylated (B). The ligand binding domain (LBD) of FXR was expressed as fusion protein with GST in BL-21 cells using the vector pDEST15. Cells were lysed by sonication, and the fusion proteins purified over glutathione sepharose (Pharmacia) according to the manufacturers instructions. For screening of compounds for their influence on the FXR-peptide interaction, the Perkin Elmer LANCE technology was applied. This method relies on the binding dependent energy transfer from a donor to an acceptor fluorophor attached to the binding partner of interest. For ease of handling and reduction of background from compound fluorescence LANCE technology makes use of generic fluorophore labels and time resolved detection Assays were done in a final volume of 2 5 μl in a 384 well plate, in a Tris-based buffer (20 mM Tris-HCl pH 7,5; 60 mM KCl, 5 mM MgCl2; 35 ng/μl BSA), containing 20-60 ng/well recombinantly expressed FXR-LBD fused to GST, 200-600 nM N-terminally biotinylated peptide, representing SRC1 aminoacids 676-700, 200 ng/well Streptavidin-xIAPC conjugate(Prozyme) and 6-10 ng/well Eu W1024 antiGST (Perkin Elmer). DMSO content of the samples was kept at 1%. After generation of the assay mix and diluting the potentially FXR modulating ligands, the assay was equilibrated for one hour in the dark at room temperature in FIA-plates black 384 well (Greiner). […]
# [4] = Rat hepatocyte stability assay; format: in vitro ADME; conditions: hepatocytes, 37° C., 60 minute, read-out: Rat hepatocyte clearance
# Protocol: Compound stability towards rat hepatocytes was determined as follows: The hepatocytes are incubated with the test compound at 37° C. Samples are removed at the appropriate time points into methanol to terminate the reaction. Following centrifugation, the supernatant is analysed by LC-MS/MS. The disappearance of test compound is monitored over a 60 minute time period. The In peak area ratio (compound peak area/internal standard peak area) is plotted against time and the gradient of the line determined. Finally, half life t1/2 and Intrinsic clearance CLint is computed by the following equations: elimination rate konstant (k)=−gradient; t1/2 (min)=0.693/k; V (μl/10^6 cells)=volume of incubation (μl)/number of cells (*10^6); CLint (μl/min/10^6cells protein)=V*0.693/t1/2.
# [5] = Aqueous solubility assay, Protocol B, shake-flask method; format: physicochemical; conditions: aqueous buffer, 10 mM PBS buffer pH 7.4, 1% MeOH, room temperature, read-out: Aqueous solubility pH 7.4 (μM) (±standard deviation), shake-flask method
# Protocol: Protocol B, shake-flask method:
# Sample preparation: Sample and standard solution preparation is performed by mixing equal volumes of acetonitrile containing the internal standard (1 μM final concentration) with sample and calibration standard solutions (100 μl). After vigorously shaking (10 seconds) the samples are centrifuged (6000 g) for 5 minutes at 20° C. Aliquots of the particle-free supernatants are transferred to 200 μl sample vials and subsequently subjected to LC-MS/MS. Assay procedure: Test concentration was 100 μM in 10 mM PBS buffer pH 7.4 with a final MeOH concentration of 1%. The volume of the incubation solution was 500 μl. Depending on each compound's solubility in MeOH, the stock concentration and the incubation concentration was adapted. The test solutions in quadruplicates were shaken at 300 rpm over a 20 hours period at room temperature, followed by centrifugation at 20000 g for 30 minutes to separate the solid phase. 100 μl of particle free sample are added to 100 μl acetonitrile containing the internal standard. The aqueous solubility of the compounds was determined by measuring the concentration of the PBS buffer supernatant by HPLC-MS/MS.
Structure (SMILES),fraction unbound [1],microsomal CLint [2] [µL/min/mg],pIC50 [3],hepatocyte CLint [4] [µL/min/1e6 cells],solubility at 20 h [5] [µM]
"CC(C)c1onc(-c2c(Cl)cccc2Cl)c1COc1ccc(N(C)C(=O)c2ccc(-c3nnn[nH]3)cc2)c(C(F)(F)F)n1 [Example 25, N-(6-((3-(2,6-Dichlorophenyl)-5-isopropylisoxazol-4-yl)methoxy)-2-(trifluoromethyl)pyridin-3-yl)-N-methyl-4-(1H-tetrazol-5-yl)benzamide]",0.0004,169,≥ 6.00,2.5,–
"CC(C)c1onc(-c2c(Cl)cccc2Cl)c1COc1cnc(N(C)Cc2cccc(C(=O)O)c2)c(Cl)c1 [Example 32, 3-(((3-Chloro-5-((3-(2,6-dichlorophenyl)-5-isopropylisoxazol-4-yl)methoxy)pyridin-2-yl)(methyl)amino)methyl)benzoic acid]",–,–,≥ 6.00,–,129
